Earlier results in patent publication US20220354785A1, “ORAL LOZENGE PRODUCTS” (NICOVENTURES TRADING LIMITED, priority 2021, published 2022).

Assays:
[1] = aqueous environment (e.g., saliva) / water
[2] = isomerizes to trans-bixin

| solubility in water [1] | chemical stability when isolated [2] | SMILES | logP value |
| --- | --- | --- | --- |
| insoluble in water | chemically unstable when isolated | COC(=O)/C=C/C(C)=C\C=C\C(C)=C\C=C\C=C(C)\C=C\C=C(C)\C=C\C(=O)O [bixin] | – |
| – | – | C=C(C)[C@@H]1CCC(C)=C[C@H]1c1c(O)cc(CCCCC)cc1O [CBD, cannabidiol] | about 6.5 |
